Results published in patent US9221746B2, “Homo- and hetero-polyamino-acid derivatives of fullerene C60, method for producing same, and pharmaceutical compositions based on said derivatives” (priority 2011, dated 2015).
Where two headings read alike, the source gives them in different places. Marks after values point to notes of the source that are not given here.

Assays:
[1] = system: A/Aichi/2/69 (H3N2) influenza virus; assay: Induced influenza pneumonia in mice
L1210 leukemia = type: in vivo, mice; conditions: for ILT, %: increase in lifetime compared to the control; for Average body weight gain, M ± m / Percent inhibition relative to control / Average weight gain, M ± m: ascite development
Method: These studies were carried out at the Institute for Toxicology, St. Petersburg, 2006, according to “Guidelines for the Study of Antitumor Activity of Pharmacological Agents” (“Manual on Experimental (Preclinical) Study of New Pharmacological Agents,” Ministry of Public Health of the Russian Federation, Remedium, Moscow, 2000, pp. 319-325).
The L1210 leukemia, breast adenocarcinoma Ca-755, and Lewis carcinoma (3LL) tumor cell strain were purchased from the Petrov Research Institute for Oncology, the Ministry of Public Health of the Russian Federation (St. Petersburg).
DBA/2 line mice with transplanted L1210 leukemia cells. Mouse ages: 6 to 8 weeks; body weights: 19 to 25 g.
The antitumor effect was ascertained through the following parameters: • ascite accumulation as animal body weight gain; • the lifetime of animals; and • tumor growth. The larger dimension of the tumor (length) and the smaller dimension normal thereto (width) were measured. The tumor volume was calculated, and the inhibition of tumor growth was calculated by a formula. The ascertainment criterion was the day when each individual tumor reached a volume of 500 mm^3.
During the experiment, the animals were weighed daily with the goal of evaluating ascite accumulation and studying the agents compared on this process.

[2] = LD90, intramuscularly 50 mg/kg/day
[3] = LD90, intramuscularly 100 mg/kg/day
[4] = LD90, intramuscularly 200 mg/kg/day
[5] = LD90, intraperitoneally 50 mg/kg/day
[6] = LD90, intraperitoneally 100 mg/kg/day

Fullerene Poly(Aminocaproic Acid) of Formula C60(H3){NH(CH2)5COO—}3{NH3^+(CH2)5COOH}3 [Agent No. 1]
Percent body weight change in days post infection ([1]; LD70, orally 100 mg/kg/day, day 11): +43%
Percent body weight change in days post infection ([1]; LD70, orally 100 mg/kg/day, day 13): +51%
Percent death protection (%) ([1]; LD70, orally 200 mg/kg/day): 70%
average lifetime ([1]; LD70, orally 200 mg/kg/day): >16 days
Percent body weight change in days post infection ([1]; LD70, orally 200 mg/kg/day, day 1): +26%
Percent body weight change in days post infection ([1]; LD70, orally 200 mg/kg/day, day 2): +31%
Percent body weight change in days post infection ([1]; LD70, orally 200 mg/kg/day, day 3): +36%
Percent body weight change in days post infection ([1]; LD70, orally 200 mg/kg/day, day 4): +36%
Percent body weight change in days post infection ([1]; LD70, orally 200 mg/kg/day, day 5): +36%
Percent body weight change in days post infection ([1]; LD70, orally 200 mg/kg/day, day 7): +38%
Percent body weight change in days post infection ([1]; LD70, orally 200 mg/kg/day, day 9): +47%
Percent body weight change in days post infection ([1]; LD70, orally 200 mg/kg/day, day 11): +51%
Percent body weight change in days post infection ([1]; LD70, orally 200 mg/kg/day, day 13): +57%
Average lifetime (days) ([1]; LD70, orally 300 mg/kg/day): 12.8 (1-8 d., 2-9 d.) days
Percent death protection (%) ([1]; LD70, orally 300 mg/kg/day): 40%
Percent body weight change in days post infection ([1]; LD70, orally 300 mg/kg/day, day 1): +24%
Percent body weight change in days post infection ([1]; LD70, orally 300 mg/kg/day, day 2): +27%
Percent body weight change in days post infection ([1]; LD70, orally 300 mg/kg/day, day 3): +28%
Percent body weight change in days post infection ([1]; LD70, orally 300 mg/kg/day, day 4): +24%
Percent body weight change in days post infection ([1]; LD70, orally 300 mg/kg/day, day 5): +19%
Percent body weight change in days post infection ([1]; LD70, orally 300 mg/kg/day, day 7): +23%
Percent body weight change in days post infection ([1]; LD70, orally 300 mg/kg/day, day 9): +35%
Percent body weight change in days post infection ([1]; LD70, orally 300 mg/kg/day, day 11): +36%
Percent body weight change in days post infection ([1]; LD70, orally 300 mg/kg/day, day 13): +38%
Average lifetime (days) [1, 2]: 11.4 (2-7 d., 1-8 d., 2-11 d) days
Percent death protection (%) [1, 2]: 40%
Average lifetime (days) [1, 3]: 13.0 (1-8 d., 1-9 d., 1-11 d.) days
Percent death protection (%) [1, 3]: 60%
Average lifetime (days) [1, 4]: 13.1 (1-7 d., 2-11 d) days
Percent death protection (%) [1, 4]: 60%
Average lifetime (days) [1, 5]: 11.5 (2-7 d. D-9 d., 2-11 d.) days
Percent death protection (%) [1, 5]: 40%
Average lifetime (days) [1, 6]: 10 D3-7 d., 2-8 d., 1-9 d.) days
Percent death protection (%) [1, 6]: 30%
Average lifetime (days) ([1]; LD90, orally 100 mg/kg/day): 10.8 (2-7 d., 1-9 d., 2-10 d., 1-11 d) days
Percent death protection (%) ([1]; LD90, orally 100 mg/kg/day): 30%
Average lifetime (days) ([1]; LD90, orally 200 mg/kg/day): 13.4 (1-10 d., 2-11 d) days
Percent death protection (%) ([1]; LD90, orally 200 mg/kg/day): 60%
increase of lifetime ([1]; intramuscular, doses of 100 and 200 mg/kg/day): twofold
toxicity for infected mice ([1]; intraperitoneal, 200 mg/kg/day): toxic
efficiency of intraperitoneal treatment ([1]; intraperitoneal, only in doses of 50 and 100 mg/kg/day): efficient
ALT in days, M ± m (L1210 leukemia; 100 mg/kg): 10.7 ± 37 days
ILT, % (L1210 leukemia; 100 mg/kg): 78.33%
ALT in days, M ± m (L1210 leukemia; 100 mg/kg, listed as agent): 10.7 ± 0.37 days
average lifetime (L1210 leukemia; 200 mg/kg): 10.60 ± 0.37 days
percent increase in lifetime compared to the control (L1210 leukemia; 200 mg/kg): 76.67%
ALT in days, M ± m (L1210 leukemia; 250 mg/kg): 10.60 ± 37 days
factor by which average body weight gain is lower at 250 mg/kg than at 100 mg/kg (L1210 leukemia; 250 mg/kg versus 100 mg/kg): 1.5
ILT, % (L1210 leukemia; 250 mg/kg): 76.67%
Average body weight gain, M ± m (L1210 leukemia; 100 mg/kg, day 1): 0.3 ± 0.2
Average body weight gain, M ± m (L1210 leukemia; 100 mg/kg, day 2): 0.8 ± 0.4
Average body weight gain, M ± m (L1210 leukemia; 100 mg/kg, day 3): 2.5 ± 0.5
Percent inhibition relative to control (L1210 leukemia; 100 mg/kg, day 3): 50.0%*
Average body weight gain, M ± m (L1210 leukemia; 100 mg/kg, day 4): 4.2 ± 1.0
Percent inhibition relative to control (L1210 leukemia; 100 mg/kg, day 4): 63.2%*
Average body weight gain, M ± m (L1210 leukemia; 100 mg/kg, day 5): 8.4 ± 1.2
Percent inhibition relative to control (L1210 leukemia; 100 mg/kg, day 5): 48.5%*
Average body weight gain, M ± m (L1210 leukemia; 100 mg/kg, day 6): 12.1 ± 2.1
Percent inhibition relative to control (L1210 leukemia; 100 mg/kg, day 6): 42.9%*
Average body weight gain, M ± m (L1210 leukemia; 100 mg/kg, day 7): 14.2 ± 2.2
Percent inhibition relative to control (L1210 leukemia; 100 mg/kg, day 7): 46.0%*
Average weight gain, M ± m (L1210 leukemia; 250 mg/kg, day 1): 0.3 ± 0.1
Average weight gain, M ± m (L1210 leukemia; 250 mg/kg, day 2): 0.5 ± 0.3
Average weight gain, M ± m (L1210 leukemia; 250 mg/kg, day 3): 1.1 ± 0.4
Percent inhibition relative to control (L1210 leukemia; 250 mg/kg, day 3): 78.0%*
Average weight gain, M ± m (L1210 leukemia; 250 mg/kg, day 4): 2.8 ± 0.9
Percent inhibition relative to control (L1210 leukemia; 250 mg/kg, day 4): 75.4%*
Average weight gain, M ± m (L1210 leukemia; 250 mg/kg, day 5): 4.7 ± 1.2
Percent inhibition relative to control (L1210 leukemia; 250 mg/kg, day 5): 71.2%*
Average weight gain, M ± m (L1210 leukemia; 250 mg/kg, day 6): 8.4 ± 1.6
Percent inhibition relative to control (L1210 leukemia; 250 mg/kg, day 6): 60.4%*
Average weight gain, M ± m (L1210 leukemia; 250 mg/kg, day 7): 10.0 ± 1.3
Percent inhibition relative to control (L1210 leukemia; 250 mg/kg, day 7): 62.0%*
intoxication signatures (L1210 leukemia; mouse, in vivo): No intoxication signatures were detected
